Data on eleven molecules can be found in paper PMC8636942, “Ab initio Designed Antimicrobial Peptides Against Gram-Negative Bacteria” (Frontiers in Microbiology, 2021).

Series [1] relates to E. coli ATCC 51659 (MDR, O157:H7). The following applies: Mueller Hinton Broth; for Minimum inhibitory concentration (MIC): MDR strain, CLSI broth microdilution, 5 × 10^4 CFU/well, OD600, <10% of untreated control = clear, n = 3; for Minimum inhibitory concentration (MIC) / Antibacterial screening: growth inhibition / bactericidal activity: 16–20 h, 37°C; for Antibacterial screening: growth inhibition / bactericidal activity: 5 × 10^5 CFU/mL, OD600, n = 3. In general terms: Broth dilution looks for growth in wells or tubes with falling amounts of substance.

The test system of another series is human red blood cells. In words: Hemolysis assay. The note with it: 2% human RBCs (K2EDTA blood) in PBS, 1 h, 37°C. The series is classed as cell-based.
The next series has as its system E. coli ATCC 51659. The series is classed as cell-based, Escherichia coli. As for the experimental part: (§1) The antimicrobial activity of the PHNX peptides (China Peptides custom synthesis) and LL-37 (AnaSpec 61302) against bacteria was determined as previously described ([Barksdale et al., 2016], [2017]). Briefly, 1 × 10^5 CFU per well of bacteria were incubated with different peptide concentrations (n = 3) in a 50-μl solution of 10 mM sodium phosphate buffer (3 h, 37°C). Serial dilutions were then prepared in 1X Dulbecco’s PBS and 8 μl of each dilution was spotted in triplicate on Tryptic Soy Agar plates, which were incubated (37°C, 24 h) and CFUs were counted ([Barksdale et al., 2016], [2017]). Bacterial survival at each peptide concentration was calculated based on the ratio of the number of colonies on each experimental plate and the average number of colonies observed for assay cultures lacking peptide. The peptide concentration required to kill 50% of the viable bacteria in the assay cultures (EC50) was determined by plotting percent survival as a function of the log of peptide concentration (log μg/ml) and fitting the data using GraphPad Prism 6 (GraphPad Software Inc., San Diego, CA, United States). For the purpose of graphing, samples that had no peptide (0 μg/ml) are plotted at 1 × 10^–7 μg/ml peptide. EC50 values were determined by fitting the data from the antimicrobial assays to a standard sigmoidal dose–response curve. […] Wells containing only 10 mM sodium phosphate buffer were used as sterility control.

The test system of a further series is S. aureus ATCC 33592. The series is classed as cell-based, Staphylococcus aureus. On the procedure:
as §1

In series [2] the test system is E. coli ATCC 4157 (antibiotic susceptible). The note with it: Mueller Hinton Broth; for Minimum inhibitory concentration (MIC): antibiotic susceptible strain, CLSI broth microdilution, 5 × 10^4 CFU/well, OD600, n = 3.
Series [3] deals with S. aureus ATCC 33592 (MDR, MRSA). The following applies: Mueller Hinton Broth, 16–20 h, 37°C; for Minimum inhibitory concentration (MIC): MDR (MRSA) strain, CLSI broth microdilution, 5 × 10^4 CFU/well, OD600, n = 3; for Antibacterial screening: growth inhibition / bactericidal activity: peptide 100 μg/ml, 5 × 10^5 CFU/mL, OD600, n = 3.
For series [4], the system named is S. aureus ATCC BAA-1718 (antibiotic susceptible). The following applies: antibiotic susceptible strain; CLSI broth microdilution, Mueller Hinton Broth, 5 × 10^4 CFU/well, 16–20 h, 37°C, OD600; n = 3.
The mark [5] stands for this setting: peptide 100 μg/ml, OD540, DI water = full lysis, n = 3.
[6] abbreviates: same EC50 presented in micromolar units, 10 mM sodium phosphate buffer, 3 h, 37°C, read-out: EC50.

Values after ≈ are worked out from the molar mass of the structure shown. Where two headings read alike, the source gives them in different places. No end group written: not given here.

Consider `CC[C@H](C)[C@H](NC(=O)[C@H](CCCCN)NC(=O)[C@H](CCC(=O)O)NC(=O)[C@H](CCCCN)NC(=O)[C@H](CO)NC(=O)[C@H](CCCCN)NC(=O)[C@H](CCCNC(=N)N)NC(=O)[C@H](Cc1ccccc1)NC(=O)[C@H](Cc1ccccc1)NC(=O)[C@H](CC(=O)O)NC(=O)CNC(=O)[C@H](CC(C)C)NC(=O)[C@@H](N)CC(C)C)C(=O)NCC(=O)N[C@@H](CCCCN)C(=O)N[C@@H](CCC(=O)O)C(=O)N[C@@H](Cc1ccccc1)C(=O)N[C@@H](CCCCN)C(=O)N[C@@H](CCCNC(=N)N)C(=O)N[C@H](C(=O)N[C@H](C(=O)N[C@@H](CCC(N)=O)C(=O)N[C@@H](CCCNC(=N)N)C(=O)N[C@H](C(=O)N[C@@H](CCCCN)C(=O)N[C@@H](CC(=O)O)C(=O)N[C@@H](Cc1ccccc1)C(=O)N[C@@H](CC(C)C)C(=O)N[C@@H](CCCNC(=N)N)C(=O)N[C@@H](CC(N)=O)C(=O)N[C@@H](CC(C)C)C(=O)N[C@H](C(=O)N1CCC[C@H]1C(=O)N[C@@H](CCCNC(=N)N)C(=O)N[C@H](C(=O)N[C@@H](CCC(=O)O)C(=O)N[C@@H](CO)C(=O)O)[C@@H](C)O)C(C)C)[C@@H](C)CC)C(C)C)[C@@H](C)CC` [LL-37], for which, in series [1], the “Minimum inhibitory concentration (MIC)” value is 32 µg/mL (≈ 7.12 µM). The Hemolysis entry is listed as “negligible hemolysis” with human red blood cells (peptide 1 μg/ml, OD540, n = 3) and “approximately 40%” in the series with human red blood cells (setting [5]).
For orientation: EC50 means the concentration needed to bring the measured effect to its halfway point. As for FGKLLKLGKGLGG [PHNX-2], the “Minimum inhibitory concentration (MIC)” value in series [1] is over 100 µg/mL. Also, the EC50 is over 7.78 µM with E. coli ATCC 51659 (ATCC 51659, 3 h) and over 7.78 µM with S. aureus ATCC 33592 (setting [6]).
In the case of FGKLLKLGKGLKG [PHNX-3], the “Minimum inhibitory concentration (MIC)” value in series [1] was over 100 µg/mL. The “Half maximal effective concentration (EC50)” value in the series with E. coli ATCC 51659 (ATCC 51659, 3 h) is over 10 µg/mL. The EC50 with S. aureus ATCC 33592 (setting [6]) was over 7.34 µM.
In the case of FIGAIASYLKKFR [PHNX-6], in series [1], the “Minimum inhibitory concentration (MIC)” value was over 100 µg/mL. Further, the concentration giving a half-maximal response (EC50) with E. coli ATCC 51659 (ATCC 51659, 3 h) came to 1.72 µM; in the series on S. aureus ATCC 33592 (ATCC 33592, 3 h) it was 5.24 µM. Further, the “Half maximal effective concentration (EC50)” value with E. coli ATCC 51659 (ATCC 51659, 3 h) is at most 10 µg/mL.
The like results for FLIKILKGGKGGK [PHNX-5] were, in that order, over 100 µg/mL, 3.64 µM, over 7.36 µM and at most 10 µg/mL.
As to FLLKIVALLKKKLL [PHNX-1], the EC50 in the series with E. coli ATCC 51659 (ATCC 51659, 3 h) was found to be 0.08 µM; in the series with S. aureus ATCC 33592 (ATCC 33592, 3 h), 0.14 µM. The “Half maximal effective concentration (EC50)” value in the series with E. coli ATCC 51659 (ATCC 51659, 3 h) is at most 10 µg/mL.
The like results for FLLKLGLGKKKLL [PHNX-4] were, in that order, 1.98 µM, 3.29 µM and at most 10 µg/mL.
“GLMDTVKNAAKNLAGQLLD KIKCKITG (disulfide) [PHNX-8, 28-residue synthetic AMP with a C-terminal rana box, designed by positional analysis on Dataset 2]”: the “Minimum inhibitory concentration (MIC)” value in series [1] was 64 µg/mL; in series [2] (16–20 h, 37°C), 32 µg/mL. Moreover, the “Antibacterial screening: growth inhibition / bactericidal activity” value in series [1] (peptide 100 μg/ml) is on record as “showed activity”; in series [2] (peptide 100 μg/ml, 5 × 10^5 CFU/mL, 16–20 h, 37°C, OD600, n = 3) it was “showed activity”. For the same molecule, the “Antibacterial screening: bacterial survival” value in series [1] (peptide 100 μg/ml, Figure 3C) is reported as about 0%; in series [2] (peptide 100 μg/ml, Figure 3A), about 0%. Also, the EC50 with E. coli ATCC 51659 (setting [6]) worked out at 0.02 µM; in the series on S. aureus ATCC 33592 (setting [6]), 1.12 µM. The “Half maximal effective concentration (EC50)” value in the series on S. aureus ATCC 33592 (low salt: 10 mM sodium phosphate buffer, 1 × 10^5 CFU per well, 3 h, 37°C, CFU counting, sigmoidal fit, n = 3) turned out to be 3.31 µg/mL.
As for GVVDIIKGAGKKFAKGLAGKIANKK [PHNX-7], in the series with E. coli ATCC 51659 (ATCC 51659, 3 h), the EC50 came to 0.02 µM and the “Half maximal effective concentration (EC50)” value was at most 10 µg/mL. In the series with S. aureus ATCC 33592 (ATCC 33592, 3 h), the EC50 was 0.83 µM.
Regarding “KRFKKFFRKLKKSVKKRAKEFFKKPRVIGVSIPF [BF-CATH, reference compound]”, the “Minimum inhibitory concentration (MIC)” value was 64 µg/mL in series [3]; 8 µg/mL in series [1]; 4 µg/mL in series [2] (16–20 h, 37°C). Further, the “Antibacterial screening: growth inhibition / bactericidal activity” value in series [3] and in series [1] (peptide 100 μg/ml) was 100% throughout.
For “VRLIVAVRIWRR-NH2 (C-terminus assumed) [IDR-1018]”, the “Minimum inhibitory concentration (MIC)” value in series [3], in series [1] and in series [4] was about 16 µg/mL throughout. In addition, the “Antibacterial screening: growth inhibition / bactericidal activity” value in series [3] and in series [1] (peptide 100 μg/ml) was 100% throughout. Also, the Hemolysis entry in the series on human red blood cells (peptide 1 μg/ml, OD540, n = 3) is “negligible hemolysis”; in the series on human red blood cells (peptide 10 μg/ml, OD540, n = 3) it was about 10%; with human red blood cells (setting [5]) it was “approximately 40%”.
